Measurements as given in patent US20250179047A1, “5-[7-(3,4-DIHYDRO-1H-ISOQUINOLINE-2-CARBONYL)-1,2,3,4 TETRAHYDROISOQUINOLIN-6-YL]-1H-PYRROLE-3-CARBOXAMIDE DERIVATIVES, PHARMACEUTICAL COMPOSITIONS CONTAINING THEM AND THEIR USES AS PRO-APOPTOTIC AGENTS” (LES LABORATOIRES SERVIER, priority 2022, published 2025).

Columns and labels:
BCL2 WT = BCL2 WT (Homo sapiens (Human), UniProt P10415); experiment: TR-FRET competitive binding assay, BCL2 WT; settings: Ki determined from IC50, read-out: TR_FRET EKI_Bcl2 WT
Procedure, shortened: (§1)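 Ki derived from IC50 (11-point dilution, 520/495 nm emission ratio) for displacing a fluorescein-labelled PUMA peptide (2 or 20 nM). Target was 0.5 nM E. coli-expressed Halo-tagged BCL2 (1-207) or BCLXL (2-196), terbium-labelled on Halo. Incubation 2 h at 23°C in pH 7.5 Hepes with 150 mM NaCl and 5% DMSO.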

BCL2 F104I = BCL2 F104I (Homo sapiens, UniProt P10415, F104I); experiment: TR-FRET competitive binding assay, BCL2 F104I; settings: Ki determined from IC50, read-out: TR_FRET EKI_Bcl2 F104I
Procedure, shortened: as §1

BCL2 D111A = BCL2 D111A (Homo sapiens, UniProt P10415, D111A); experiment: TR-FRET competitive binding assay, BCL2 D111A; settings: Ki determined from IC50, read-out: TR_FRET EKI_Bcl2 D111A
Procedure, shortened: as §1

BCLXL WT = BCLXL WT (Homo sapiens (Human), UniProt Q07817); experiment: TR-FRET competitive binding assay, BCLXL WT; settings: for Ki: BCLXL WT, Ki determined from IC50, read-out: TR_FRET EKI BclxL; for TR_FRET EKI BCLxL/WT selectivty ratio: ratio Ki BCLxL / Ki BCL2 WT
Procedure, shortened: as §1

KMS12PE = experiment: In vitro cytotoxicity CellTiterGlo 72 h, KMS12PE; type: cell-based; settings: Homo sapiens, KMS-12-PE, read-out: C50 nM, KMS12PE
Experimental: (§2) KMS-12-PE (ACC 606) were purchased from the Leibniz-Institute DSMZ (Braunschweig, Germany) and were grown at 37° C. in a humidified atmosphere with 5% CO2 in media recommended by the suppliers. Lentiviral particles containing Bcl-2 wild type (also named “Bcl2 WT”), Bcl-2 mutated on G101V (also named “Bcl2 G101V”), Bcl-2 mutated on D103Y (also named “Bcl2 D103Y”), Bcl-2 mutated on D103V (also named “Bcl2 D103V”), Bcl-2 mutated on D103E (also named “Bcl2 D103E”), Bcl-2 mutated on F104I (also named “Bcl2 F104I”), Bcl-2 mutated on F104L (also named “Bcl2 F104L”), Bcl-2 mutated on D111A (also named “Bcl2 D111A”), Bcl-2 mutated on A113G (also named “Bcl2 A113G”), Bcl-2 mutated on R129L (also named “Bcl2 R129L”), Bcl-2 mutated on V156D (also named “Bcl2 V156D”) were cloned into pcLV-CMV-DEST-IRES-TagRFP. Lentiviral particles (1×10^6) were mixed with Polybrene at 8 μg/ml and transduced by spinoculation for 1 h at 32° C. and incubated overnight. After 8 days, TagRFP positive-cells were sorted by FACS. BCL2 expression was monitored by immunoblotting using anti-Flag and anti-BCL2 antibodies. Cells were seeded into 96-wells plates and treated with 1:3.16 serial dilution of compounds (9 different concentrations). Cell viability was assessed using CellTiterGlo reagent following treatment for 72 h. Results were normalized to the viability of cells without compounds (control wells). The C50 values were calculated using nonlinear regression algorithms in XCell software.

KMS12PE Bcl2 D103Y = experiment: In vitro cytotoxicity CellTiterGlo 72 h, KMS12PE Bcl2 D103Y; type: cell-based; settings: Homo sapiens, KMS-12-PE, read-out: C50 nM, KMS12PE Bcl2 D103Y
Experimental: as §2

KMS12PE Bcl2 F104I = experiment: In vitro cytotoxicity CellTiterGlo 72 h, KMS12PE Bcl2 F104I; type: cell-based; settings: Homo sapiens, KMS-12-PE, read-out: C50 nM, KMS12PE Bcl2 F104I
Experimental: as §2

KMS12PE Bcl2 D103E = experiment: In vitro cytotoxicity CellTiterGlo 72 h, KMS12PE Bcl2 D103E; type: cell-based; settings: Homo sapiens, KMS-12-PE, read-out: C50 nM, KMS12PE Bcl2 D103E
Experimental: as §2

KMS12PE Bcl2 A113G = experiment: In vitro cytotoxicity CellTiterGlo 72 h, KMS12PE Bcl2 A113G; type: cell-based; settings: Homo sapiens, KMS-12-PE, read-out: C50 nM, KMS12PE Bcl2 A113G
Experimental: as §2

KMS12PE Bcl2 R129L = experiment: In vitro cytotoxicity CellTiterGlo 72 h, KMS12PE Bcl2 R129L; type: cell-based; settings: Homo sapiens, KMS-12-PE, read-out: C50 nM, KMS12PE Bcl2 R129L
Experimental: as §2

Sequence of BCL2 WT (P10415 other isoform, or with tags, fused parts or gaps): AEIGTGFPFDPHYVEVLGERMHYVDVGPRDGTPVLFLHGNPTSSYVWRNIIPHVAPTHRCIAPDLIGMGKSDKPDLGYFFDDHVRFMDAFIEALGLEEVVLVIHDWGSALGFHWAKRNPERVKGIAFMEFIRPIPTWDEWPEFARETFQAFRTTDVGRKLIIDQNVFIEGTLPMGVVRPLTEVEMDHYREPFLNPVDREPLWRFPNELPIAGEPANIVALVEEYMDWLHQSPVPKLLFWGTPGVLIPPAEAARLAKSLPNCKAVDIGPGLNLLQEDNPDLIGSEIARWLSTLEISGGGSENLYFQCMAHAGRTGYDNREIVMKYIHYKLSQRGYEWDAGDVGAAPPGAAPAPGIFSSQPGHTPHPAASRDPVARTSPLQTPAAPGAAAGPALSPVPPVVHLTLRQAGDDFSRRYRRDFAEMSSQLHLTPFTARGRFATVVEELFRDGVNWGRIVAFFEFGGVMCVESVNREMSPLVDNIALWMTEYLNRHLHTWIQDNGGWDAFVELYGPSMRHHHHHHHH
Sequence of BCLXL WT (Q07817 other isoform, or with tags, fused parts or gaps): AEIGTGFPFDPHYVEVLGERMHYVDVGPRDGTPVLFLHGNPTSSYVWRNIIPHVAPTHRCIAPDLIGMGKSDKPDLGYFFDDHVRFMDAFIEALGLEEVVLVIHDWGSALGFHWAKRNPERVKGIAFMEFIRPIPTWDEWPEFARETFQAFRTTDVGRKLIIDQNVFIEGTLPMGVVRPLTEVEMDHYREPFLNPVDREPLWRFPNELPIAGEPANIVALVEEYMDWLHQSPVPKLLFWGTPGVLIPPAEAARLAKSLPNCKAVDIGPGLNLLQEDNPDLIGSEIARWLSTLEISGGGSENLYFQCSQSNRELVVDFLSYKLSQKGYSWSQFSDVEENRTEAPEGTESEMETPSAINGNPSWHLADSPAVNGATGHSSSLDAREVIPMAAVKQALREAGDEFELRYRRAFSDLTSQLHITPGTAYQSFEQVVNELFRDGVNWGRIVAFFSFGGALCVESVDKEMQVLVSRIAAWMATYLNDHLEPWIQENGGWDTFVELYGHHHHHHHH

| Structure (SMILES) | Ki (BCL2 WT) | Ki (BCL2 F104I) | Ki (BCL2 D111A) | Ki (BCLXL WT) | TR_FRET EKI BCLxL/WT selectivty ratio (BCLXL WT) | IC50 (KMS12PE) | IC50 (KMS12PE Bcl2 D103Y) | IC50 (KMS12PE Bcl2 F104I) | IC50 (KMS12PE Bcl2 D103E) | IC50 (KMS12PE Bcl2 A113G) | IC50 (KMS12PE Bcl2 R129L) |
| --- | --- | --- | --- | --- | --- | --- | --- | --- | --- | --- | --- |
| Cc1c(N(C(=O)c2cc(-c3cc4c(cc3C(=O)N3Cc5ccccc5C[C@H]3C)CN(C(=O)Cc3ccc(OCCN5CCOCC5)cc3)CC4)n(C)c2C)c2ccc(O)cc2)cc(C#N)n1C [Example 21, N-(5-cyano-1,2-dimethyl-1H-pyrrol-3-yl)-N-(4-hydroxyphenyl)-1,2-dimethyl-5-{7-[(3R)-3-methyl-1,2,3,4-tetrahydroisoquinoline-2-carbonyl]-2-(2-{4-[2-(morpholin-4-yl)ethoxy]phenyl}acetyl)-1,2,3,4-tetrahydroisoquinolin-6-yl}-1H-pyrrole-3-carboxamide] | 0.11 nM | 0.29 nM | 0.19 nM | 1.1 nM | 10.0 | 0.24 nM | 2.1 nM | 45 nM | 2.36 nM | 4.06 nM | 1.51 nM |
| Cc1c(N(C(=O)c2cc(-c3cc4c(cc3C(=O)N3Cc5ccccc5C[C@H]3C)CN(C(=O)Cc3ccc(OCCC5CCOCC5)cc3)CC4)n(C)c2C)c2ccc(O)cc2)cc(C#N)n1C [Example 27, N-(5-cyano-1,2-dimethyl-1H-pyrrol-3-yl)-N-(4-hydroxyphenyl)-1,2-dimethyl-5-{7-[(3R)-3-methyl-1,2,3,4-tetrahydroisoquinoline-2-carbonyl]-2-(2-{4-[2-(oxan-4-yl)ethoxy]phenyl}acetyl)-1,2,3,4-tetrahydroisoquinolin-6-yl}-1H-pyrrole-3-carboxamide] | 0.8 nM | 2.36 nM | 1.67 nM | 10.1 nM | 12.6 | 0.19 nM | 1.1 nM | 29.1 nM | 1.44 nM | 2.79 nM | 0.99 nM |
| Cc1c(N(C(=O)c2cc(-c3cc4c(cc3C(=O)N3Cc5ccccc5C[C@H]3CN3CCCCC3)CN(C(=O)Cc3ccc(OCCN5CCOCC5)cc3F)CC4)n(C)c2C)c2ccc(O)cc2)cc(C#N)n1C [Example 43, N-(5-cyano-1,2-dimethylpyrrol-3-yl)-5-[2-(2-{2-fluoro-4-[2-(morpholin-4-yl)ethoxy]phenyl}acetyl)-7-{[(3S)-3-(piperidin-1-ylmethyl)-3,4-dihydro-1H-isoquinolin-2-yl]carbonyl}-3,4-dihydro-1H-isoquinolin-6-yl]-N-(4-hydroxyphenyl)-1,2-dimethylpyrrole-3-carboxamide] | 0.04 nM | 0.16 nM | 0.1 nM | 2.2 nM | 55.0 | 0.22 nM | 1.28 nM | 29.3 nM | 1.44 nM | 2.5 nM | 0.99 nM |
| Cc1c(N(C(=O)c2cc(-c3cc4c(cc3C(=O)N3Cc5ccccc5C[C@H]3C)CN(C(=O)Cc3ccc(N5CCN6CCOC[C@@H]6C5)cc3F)CC4)n(C)c2C)c2ccc(O)cc2)cc(C#N)n1C [Example 45, 5-[2-(2-{4-[(9aS)-octahydropyrazino[2,1-c][1,4]oxazin-8-yl]-2-fluorophenyl}acetyl)-7-[(3R)-3-methyl-1,2,3,4-tetrahydroisoquinoline-2-carbonyl]-1,2,3,4-tetrahydroisoquinolin-6-yl]-N-(5-cyano-1,2-dimethyl-1H-pyrrol-3-yl)-N-(4-hydroxyphenyl)-1,2-dimethyl-1H-pyrrole-3-carboxamide] | 0.08 nM | 1.65 nM | 0.19 nM | 2.5 nM | 31.6 | 0.32 nM | 0.2 nM | 114 nM | 2.7 nM | 8.03 nM | 1.89 nM |
| Cc1c(N(C(=O)c2cc(-c3cc4c(cc3C(=O)N3Cc5ccccc5C[C@H]3C)CN(C(=O)Cc3ccc(CCN5CCC(F)(F)CC5)cc3)CC4)n(C)c2C)c2ccc(O)cc2)cc(C#N)n1C [Example 51, N-(5-cyano-1,2-dimethylpyrrol-3-yl)-5-[2-(2-{4-[2-(4,4-difluoropiperidin-1-yl)ethyl]phenyl}acetyl)-7-{[(3R)-3-methyl-3,4-dihydro-1H-isoquinolin-2-yl]carbonyl}-3,4-dihydro-1H-isoquinolin-6-yl]-N-(4-hydroxyphenyl)-1,2-dimethylpyrrole-3-carboxamide] | 0.22 nM | 4.91 nM | 0.89 nM | 4.4 nM | 20.0 | 0.34 nM | 2.79 nM | 321 nM | 2.81 nM | 9.24 nM | 3.22 nM |
| COC[C@@H]1Cc2ccccc2CN1C(=O)c1cc2c(cc1-c1cc(C(=O)N(c3ccc(O)cc3)c3cc(C#N)n(C)c3C)c(C)n1C)CCN(C(=O)Cc1ccc(OCCC3CCOCC3)cc1F)C2 [Example 52, N-(5-cyano-1,2-dimethylpyrrol-3-yl)-5-[2-(2-{2-fluoro-4-[2-(oxan-4-yl)ethoxy]phenyl}acetyl)-7-{[(3S)-3-(methoxymethyl)-3,4-dihydro-1H-isoquinolin-2-yl]carbonyl}-3,4-dihydro-1H-isoquinolin-6-yl]-N-(4-hydroxyphenyl)-1,2-dimethylpyrrole-3-carboxamide] | 0.2 nM | 0.77 nM | 0.64 nM | 3 nM | 15.2 | 0.21 nM | 1.8 nM | 11.1 nM | 1.86 nM | 3.99 nM | 1.89 nM |
| Cc1c(N(C(=O)c2cc(-c3cc4c(cc3C(=O)N3Cc5ccccc5C[C@H]3C)CN(C(=O)Cc3ccc(OCCN5CCC(F)CC5)cc3)CC4)n(C)c2C)c2ccc(O)cc2)cc(C#N)n1C [Example 53, N-(5-cyano-1,2-dimethyl-1H-pyrrol-3-yl)-5-[2-(2-{4-[2-(4-fluoropiperidin-1-yl)ethoxy]phenyl}acetyl)-7-[(3R)-3-methyl-1,2,3,4-tetrahydroisoquinoline-2-carbonyl]-1,2,3,4-tetrahydroisoquinolin-6-yl]-N-(4-hydroxyphenyl)-1,2-dimethyl-1H-pyrrole-3-carboxamide] | 0.07 nM | 0.35 nM | 0.18 nM | 1.2 nM | 18.5 | 0.35 nM | 2.61 nM | 72.7 nM | 2.76 nM | 5.68 nM | 2.38 nM |
| Cc1c(N(C(=O)c2cc(-c3cc4c(cc3C(=O)N3Cc5ccccc5C[C@H]3C)CN(C(=O)Cc3ccc(OCCN5CCSCC5)cc3)CC4)n(C)c2C)c2ccc(O)cc2)cc(C#N)n1C [Example 55, N-(5-cyano-1,2-dimethyl-1H-pyrrol-3-yl)-N-(4-hydroxyphenyl)-1,2-dimethyl-5-{7-[(3R)-3-methyl-1,2,3,4-tetrahydroisoquinoline-2-carbonyl]-2-(2-{4-[2-(thiomorpholin-4-yl)ethoxy]phenyl}acetyl)-1,2,3,4-tetrahydroisoquinolin-6-yl}-1H-pyrrole-3-carboxamide] | 0.1 nM | 0.3 nM | 0.25 nM | 2.6 nM | 26.5 | 0.33 nM | 2.5 nM | 57.8 nM | 2.91 nM | 5.53 nM | 2.46 nM |
